Results from PubChem BioAssay (NCI).
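Test compounds were applied to cells in 96-well plates for 48 hours at 5 doses. At the GI50, growth is halved. TGI denotes the concentration required for complete inhibition of growth.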

Key:
Test in all cases: DTP human tumour cell line panel, 48 h
HCT-15 colon = system: HCT-15 colon
OVCAR-4 ovarian = system: OVCAR-4 ovarian
A498 renal = system: A498 renal
UACC-62 melanoma = system: UACC-62 melanoma
HT29 colon = system: HT29 colon
NCI-H522 lung = system: NCI-H522 lung
A549 NSCLC = system: A549 NSCLC
U251 CNS = system: U251 CNS
SK-MEL-2 melanoma = system: SK-MEL-2 melanoma
SF-295 CNS = system: SF-295 CNS

Row | Compound | GI50 (HCT-15 colon) [µM] | TGI (HCT-15 colon) [µM] | GI50 (OVCAR-4 ovarian) [µM] | TGI (OVCAR-4 ovarian) [µM] | GI50 (A498 renal) [µM] | TGI (A498 renal) [µM] | GI50 (UACC-62 melanoma) [µM] | TGI (UACC-62 melanoma) [µM] | GI50 (HT29 colon) [µM] | TGI (HT29 colon) [µM] | GI50 (NCI-H522 lung) [µM] | TGI (NCI-H522 lung) [µM] | GI50 (A549 NSCLC) [µM] | TGI (A549 NSCLC) [µM] | GI50 (U251 CNS) [µM] | TGI (U251 CNS) [µM] | GI50 (SK-MEL-2 melanoma) [µM] | TGI (SK-MEL-2 melanoma) [µM] | GI50 (SF-295 CNS) [µM] | TGI (SF-295 CNS) [µM]
1 | CCN(CC)c1ccc(/C=C/C2=[N+](C)c3ccccc3C2(C)C)cc1 | 3.34 | > 49.4 | 0.292 | 29.7 | 1.65 | 12.2 | 0.435 | 14.9 | 0.148 | > 40.5 | 0.274 | 21.8 | 0.518 | > 100 | 0.201 | 21.6 | 0.487 | > 35.9 | 0.374 | 22.2
2 | NCCCNCCCNc1nc2ccccc2c2[nH]c3ccccc3c12 | 0.307 | 4.95 | 0.198 | 1.39 | 0.995 | 2.44 | 0.327 | 1.73 | 0.0482 | 1.86 | 0.00716 | 0.563 | 0.0509 | 4.05 | 0.0938 | 1.32 | 0.703 | 2.42 | 0.0664 | 1.61
3 | COC(=O)Oc1nn(C(=O)OC)c(=O)c2ccccc12 (tested in a mixture with another compound) | – | > 100 | – | > 100 | – | 99.4 | – | > 100 | – | > 100 | – | > 100 | – | > 100 | – | > 100 | – | > 100 | – | > 100
4 | c1ccc(COc2ccc(Nc3ncnc4ccc(-c5ccco5)cc34)cc2)cc1 | 4.3 | 12.3 | 4.69 | 17.1 | 5.39 | > 21.6 | 5.75 | 14.3 | 4.52 | 16.1 | 4.84 | 15.1 | 6.83 | > 25 | 6.99 | > 25 | 9.68 | 24.6 | 8.62 | > 25
5 | Cn1cc(-c2nonc2-c2cn(C)c3ccc(Br)cc23)c2ccccc21 | 2.17 | > 100 | 5.95 | > 100 | 3.38 | > 100 | 3.37 | > 100 | 3.26 | > 100 | 3.01 | > 100 | 5.29 | > 100 | 3.93 | > 100 | 3.36 | > 100 | 2.89 | > 100
